Assay results as given in patent US9266829B2, “Quinone compounds and their uses for the treatment of cancer” (Onco-NX Limited, priority 2012, dated 2016).
“Also recorded” adds a separate entry of the source.

Experiments:
MDA468 = assay: IC50 by MTT assay on MDA468 cells; format: cell-based, human
MDA468 cells = assay: Combination index at IC50 with other anti-cancer agents in MDA468 cells; format: cell-based, human
NQ01 cells = assay: Combination index at IC50 with other anti-cancer agents in NQ01 cells; format: cell-based, human
serum esterase = assay: Degradation by serum esterase (hydrolysis in serum); format: in vitro ADME
Text: (§1) The cleavage of Es5 by esterase and cell extracts and its activation were investigated.

esterase = assay: Degradation by porcine liver esterase; format: in vitro ADME; conditions: pig, porcine liver esterase
Text: as §1

porcine liver esterase = assay: Degradation by porcine liver esterase; format: in vitro ADME; conditions: in words
Text: as §1

porcine brain extracts = assay: Cleavage by porcine brain extracts; format: in vitro ADME; conditions: in words; result of porcine esterase repeated
Text: as §1

MDA468 cell extract = assay: Cell lysate esterase reaction, MDA468 cell extract; format: in vitro ADME, human
Text: as §1
(§2) The degradation of Es5 by esterases from cell lysate of the two cell lines MDA NQ01 and MDA468 was investigated.

esterases [1] = assay: Cell lysate esterase reaction, MDA468 cell extract; format: in vitro ADME, human; conditions: human, MDA468 cell extract (cell lysate)
Text: as §1, §2

MDA NQ01 cell extract = assay: Cell lysate esterase reaction, MDA NQ01 cell extract; format: in vitro ADME, human
Text: as §1, §2

esterases [2] = assay: as above; format: in vitro ADME, human; conditions: human, MDA NQ01 cell line extract (cell lysate)
Text: as §1, §2

[3] = tested on: DT-diaphorase expressing cells; assay: Apoptosis by Annexin V binding, DT-diaphorase expressing cells; format: cell-based, human
Method: (§3) Based on the method described in Martin et al. (Journal of Experimental Medicine. 182, 1545-1556. 1995), the induction of apoptosis caused by the compounds of the present invention was determined.

[4] = tested on: DT-diaphorase null MDA 468 cells; assay: Apoptosis by Annexin V binding, DT-diaphorase null MDA 468 cells; format: cell-based, human
Method: as §3

MDA468NQ01 = assay: DNA damage, Comet assay, MDA468NQ01 cells; format: cell-based, human; conditions: 10 nM for 2 hrs, compared to H2O2 alone
Method: (§4) DNA damage was measured using the Comet assay to investigate the effect of Es5 on the comet head and tail intensities following treatment of MDA468NQ01 and the DT-diaphorase null MDA468 cell lines. […] Without wishing to be bound by any particular theory, the inventors believe that this must arise by a different mechanism such as 2×one electron reductions, rather than the 2 electron reduction that occurs with DT-diaphorase.

[5] = tested on: DT-diaphorase null MDA468; assay: DNA damage, Comet assay, DT-diaphorase null MDA468 cells; format: cell-based, human
Method: as §4

MDA-MB-468-NQ01 = assay: In vivo hollow fibre assay, MDA-MB-468-NQ01; design: species or system mice
Method: (§5) The activity of Es5 (4.65) was evaluated in vivo against 3 cancer cell lines H460, MDA-MB-468-NQ01 and MDA-MB-468-MOCK using the in vivo hollow fibre assay (HFA), with fibres implanted at both intraperitoneal (i.p.) and subcutaneous (s.c.) sites. Es5 and the control agent Doxorubicin were administered as multiple doses by intraperitoneal injection (i.p.) on days 3, 4, 5 & 6 at 0.5 mg/kg/day and 2.5 mg/kg/day respectively.
(§6) Three human tumour cell lines were selected for analysis: H460 NSCLC (from ICT) and two breast carcinoma lines MDA-MB-468-NQ01 and MDA-MB-468-MOCK (both supplied by Onco-NX). Cells were cultured in RPMI 1640 cell culture medium supplemented with 1 mM sodium pyruvate, 2 mM L-glutamine and 10% foetal bovine serum (all from Sigma), and maintained as monolayer cultures at 37° C. in a humidified 5% CO2 environment.
Female Balb/C immunodeficient nude mice aged 6-8 weeks were used (Harlan UK, Blackthorn, UK). Mice were kept in cages housed in isolation cabinets in an air-conditioned room with regular alternating cycles of light and darkness. They received Teklad 2018 diet (Harlan, Blackthorn, UK) and water ad libitum. All animal procedures were carried out under a project licence issued by the UK Home Office and UKCCCR guidelines were followed throughout.
Cells were loaded into sterilised colour-coded PVDF Spectra/Por hollow fibres (HF) (Spectrum Medical Inc, Houston, Tex., USA). Briefly cells were harvested and resuspended in cell culture medium at the required cell density. This preparation was then loaded into the HF and the ends were clamped and heat-sealed. The HF was then cut into 1.5 cm lengths which were again heat-sealed at both ends, and then transferred to 6-well plates containing medium before implantation for the in vivo experiments, or were incubated at 37° C. in a humidified 5% CO2 environment for varying times before processing using the modified MTT assay as described below.
For the in vivo experiments, under brief inhalation anaesthesia (2% isoflurane), one loaded hollow fibre for each of the cell lines was transplanted intraperitoneally or subcutaneously on the dorsal flank of each mouse and the mice were allowed to recover. Each group consisted of 6 mice and the implantation day was termed ‘day 0’.
For assessment of the therapeutic response of Es5 (4.65), on days 3, 4, 5 & 6 mice were treated with Es5 (4.65) at 0.5 mg/kg/day or Doxorubicin at 2.5 mg/kg/day.
Mice were sacrificed on day 7 post-implantation, fibres removed, and cell survival analysed using a modified MTT assay, comparing absorbances seen for the treated groups with the corresponding untreated control group. Statistical analysis was carried out using a Student's t-test.

MDA-MB-468-MOCK = assay: In vivo hollow fibre assay, MDA-MB-468-MOCK; conditions: fibres at i.p. site; i.p. dosing days 3-6; nude mice; p<0.01
Method: as §5, §6
Female Balb/C immunodeficient nude mice aged 6-8 weeks were used (Harlan UK, Blackthorn, UK). Mice were kept in cages housed in isolation cabinets in an air-conditioned room with regular alternating cycles of light and darkness. They received Teklad 2018 diet (Harlan, Blackthorn, UK) and water ad libitum. […]
Mice were sacrificed on day 7 post-implantation, fibres removed, and cell survival analysed using a modified MTT assay, comparing absorbances seen for the treated groups with the corresponding untreated control group. […]

physchem [6] = format: physicochemical; conditions: buffer, pH 7
physchem [7] = assay: physchem

CC(=O)OCCCC1=C(N2CC2)C(=O)C(C)=C(N2CC2)C1=O [Es5, Acetic Acid 3-(2,5-bis-aziridin-1-yl-4-methyl-3,6-dioxo-cyclohexa-1,4-dienyl)-propyl ester]
IC50 (MDA468; Homo sapiens): 25 nM | IC50 (MDA468; listed as Es5 (4.65)): 20 to 25 nM | Combination index at IC50 with ARC-C in MDA468 cells (MDA468 cells; with ARC-C): 1.2 (slight | Combination index at IC50 with Cis-platinum in MDA468 (MDA468 cells): synergy | Combination index at IC50 with Cis-platinum in MDA468 (MDA468 cells; listed as Es5 (4.65)): 0.567 (synergy) | Combination index at IC50 with Docetaxel in MDA468 cells (MDA468 cells): moderately inhibitory effect | Combination index at IC50 with Docetaxel in MDA468 cells (MDA468 cells; listed as Es5 (4.65)): 1.387 (moderately | Combination index at IC50 with Epirubicin in MDA468 cells (MDA468 cells; with Epirubicin): 1.49 (antagonism) | Combination Index at IC50 with Mitomycin C in MDA468 cells (MDA468 cells): slight antagonism | Combination Index at IC50 with Mitomycin C in MDA468 cells (MDA468 cells; listed as Es5 (4.65)): 1.4 (slight | Combination index at IC50 with cobalt chloride in MDA468 cells (MDA468 cells): strong synergy | Combination index at IC50 with cobalt chloride in MDA468 cells (MDA468 cells; listed as Es5 (4.65)): 0.464 (strong | Combination index at IC50 with ARA-C in NQ01 cells (NQ01 cells; with ARA-C): 1.22 (slight | Combination index at IC50 with Cis-platinum in MDA NQ01 (NQ01 cells): synergy | Combination index at IC50 with Cis-platinum in MDA NQ01 (NQ01 cells; listed as Es5 (4.65)): 0.674 (synergy) | Combination index at IC50 with Docetaxel in NQ01 cells (NQ01 cells): additive effect | Combination index at IC50 with Docetaxel in NQ01 cells (NQ01 cells; listed as Es5 (4.65)): 0.964 (additive) | Combination index at IC50 with Epirubicin in NQ01 cells (NQ01 cells; with Epirubicin): 2.04 (antagonism) | Combination Index at IC50 with Mitomycin C in NQ01 cells (NQ01 cells): additive effect | Combination Index at IC50 with Mitomycin C in NQ01 cells (NQ01 cells; listed as Es5 (4.65)): 0.924 (additive) | Combination index at IC50 with cobalt chloride in NQ01 cells (NQ01 cells): strong synergy | Combination index at IC50 with cobalt chloride in NQ01 cells (NQ01 cells; listed as Es5 (4.65)): 0.54 | Degradation by serum esterase, t90 (serum esterase; T90 = time taken to degrade to 90% of starting concentration): t90 90 mins | half-life (serum esterase; serum, read-out: hydrolysis in serum, t1/2): 1.67 h | half-life (esterase): 1 min | cleavage by porcine esterase to hydrolysis product (porcine liver esterase): rapidly cleaved | cleavage by porcine brain extracts (porcine brain extracts): rapidly cleaved | Degradation by MDA468 cell extract, rate (MDA468 cell extract; human, MDA468 cell extract (cell lysate)): (19.6 nmoles/hr/10^6 nmoles/hr/10^6 cells | cleavage of the ester by MDA 468 cell extract (MDA468 cell extract; in words, compared with MDA468 NQ01 extract): much reduced rate; also recorded: appreciably lower rate | half-life (esterases [1]): 4.67 h | Degradation by MDA NQ01 cell extract, rate (MDA NQ01 cell extract; human, MDA NQ01 cell line extract (cell lysate)): (11.25 nmoles/hr/10^6 nmoles/hr/10^6 cells | cleavage of the ester by MDA468 NQ01 cell extract (MDA NQ01 cell extract; in words): rapidly cleaved | half-life (esterases [2]; Degradation by MDA NQ01 cell extract, t1/2): 2.67 h | half-life (esterases [2]; room temperature, degraded to the alcohol 4.61, read-out: half-life in MDA NQ01 cell line extract): ~2.67 h | time to induction of programmed cell death (Annexin V binding) [3]: ≤ 2 h | apoptosis (Annexin V binding) at 2 hours ([4]; 2 hours): no death is seen | apoptosis (Annexin V binding) after 4 hrs ([4]; after 4 hrs): reduced level of apoptosis | Comet assay head and tail intensities (DNA cross-linking) (MDA468NQ01): increased the proportion of DNA in the head | Comet assay tail intensity (DNA cross-linking) ([5]; DT-diaphorase deficient cell line, compared to H2O2 alone): did not reduce tail intensity | Comet assay, DNA cross-linking after 6 hours of incubation ([5]; DT-diaphorase null cell line, 6 hours): evidence of cross-linking | cell survival compared to the untreated control, MDA-MB-468-NQ01, i.p. site (MDA-MB-468-NQ01; fibres at i.p. site, i.p. dosing days 3-6, nude mice, p<0.01): significant efficacy | efficacy in the NQ01-expressing compared to the Mock MDA-MB-468 cell line (MDA-MB-468-NQ01; hollow fibre assay): improved efficacy | cell survival compared to the untreated control, MDA-MB-468-MOCK, i.p. site (MDA-MB-468-MOCK): significant efficacy | half-life at 50 μM (physchem [6]): > 24 h | half-life (physchem [7]): < 24 h
